Converted amounts (≈) assume the structure as drawn.
Columns and labels:
[1] = target: BDNF/NT-3 growth factors receptor (Homo sapiens) (UniProt Q16620); assay: Inhibition of wild-type human partial length TRKB (Q547 to G838 residues) expressed in mammalian expression system assessed as residual activity at 1 uM by Kinomescan method relative to control
[2] = target: Phosphorylase b kinase gamma catalytic chain, skeletal muscle/heart isoform (Homo sapiens) (UniProt Q16816); assay: Inhibition of wild-type human full length PHKG1 (M1 to Y387 residues) expressed in bacterial expression system assessed as residual activity at 1 uM by Kinomescan method relative to control
Sequence of Phosphorylase b kinase gamma catalytic chain, skeletal muscle/heart isoform (Homo sapiens) (Q16816 whole entry, looked up, the tested form may be a part, canonical isoform): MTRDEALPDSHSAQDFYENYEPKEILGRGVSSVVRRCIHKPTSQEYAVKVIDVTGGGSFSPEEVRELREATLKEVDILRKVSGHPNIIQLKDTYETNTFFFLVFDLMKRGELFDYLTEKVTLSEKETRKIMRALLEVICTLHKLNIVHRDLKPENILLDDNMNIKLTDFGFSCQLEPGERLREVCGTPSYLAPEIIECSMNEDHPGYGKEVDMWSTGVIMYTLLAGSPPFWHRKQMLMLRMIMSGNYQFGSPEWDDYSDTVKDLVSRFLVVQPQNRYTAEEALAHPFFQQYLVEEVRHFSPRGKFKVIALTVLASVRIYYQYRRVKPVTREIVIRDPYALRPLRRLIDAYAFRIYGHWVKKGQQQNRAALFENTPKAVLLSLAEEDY

[3] = target: Inhibitor of nuclear factor kappa-B kinase subunit beta (Homo sapiens) (UniProt O14920); assay: Inhibition of wild-type human full length IKK-beta (M1 to S756 residues) expressed in mammalian expression system assessed as residual activity at 1 uM by Kinomescan method relative to control
[4] = target: Tyrosine-protein kinase Lyn (Homo sapiens) (UniProt P07948); assay: Inhibition of human LYN B assessed as residual activity at 1 uM by Kinomescan method relative to control
Sequence of Tyrosine-protein kinase Lyn (Homo sapiens) (P07948 2-512 limits assumed): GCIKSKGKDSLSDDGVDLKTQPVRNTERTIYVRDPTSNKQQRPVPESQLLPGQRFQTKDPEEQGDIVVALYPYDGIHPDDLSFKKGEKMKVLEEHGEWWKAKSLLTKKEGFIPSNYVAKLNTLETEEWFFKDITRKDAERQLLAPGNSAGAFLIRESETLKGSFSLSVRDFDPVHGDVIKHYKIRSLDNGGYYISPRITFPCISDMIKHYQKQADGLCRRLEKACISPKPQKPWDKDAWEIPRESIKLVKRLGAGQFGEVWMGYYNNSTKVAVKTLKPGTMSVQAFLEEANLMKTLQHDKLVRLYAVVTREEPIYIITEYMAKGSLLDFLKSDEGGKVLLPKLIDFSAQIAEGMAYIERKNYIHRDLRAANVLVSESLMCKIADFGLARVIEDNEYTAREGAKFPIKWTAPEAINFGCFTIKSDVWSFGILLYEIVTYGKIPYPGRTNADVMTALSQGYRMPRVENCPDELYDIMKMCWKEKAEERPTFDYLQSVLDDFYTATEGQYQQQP

[5] = target: Ribosomal protein S6 kinase alpha-5 (Homo sapiens) (UniProt O75582); assay: Inhibition of wild-type human partial length N-terminal RPS6KA5 kinase domain 1 expressed in bacterial expression system assessed as residual activity at 1 uM by Kinomescan method relative to control
[6] = target: Serine/threonine-protein kinase Nek3 (Homo sapiens) (UniProt P51956); assay: Inhibition of wild-type human full length NEK3 (M1 to R506 residues) expressed in mammalian expression system assessed as residual activity at 1 uM by Kinomescan method relative to control
[7] = target: Glycogen synthase kinase-3 beta (Homo sapiens) (UniProt P49841); assay: Inhibition of wild-type human full length GSK3B (M1 to T433 residues) expressed in mammalian expression system assessed as residual activity at 1 uM by Kinomescan method relative to control
[8] = target: cAMP-dependent protein kinase catalytic subunit PRKX (Homo sapiens) (UniProt P51817); assay: Inhibition of wild-type human partial length PRKX (M1 to F358 residues) expressed in bacterial expression system assessed as residual activity at 1 uM by Kinomescan method relative to control
Sequence of cAMP-dependent protein kinase catalytic subunit PRKX (Homo sapiens) (P51817 whole entry, the tested form may be a part): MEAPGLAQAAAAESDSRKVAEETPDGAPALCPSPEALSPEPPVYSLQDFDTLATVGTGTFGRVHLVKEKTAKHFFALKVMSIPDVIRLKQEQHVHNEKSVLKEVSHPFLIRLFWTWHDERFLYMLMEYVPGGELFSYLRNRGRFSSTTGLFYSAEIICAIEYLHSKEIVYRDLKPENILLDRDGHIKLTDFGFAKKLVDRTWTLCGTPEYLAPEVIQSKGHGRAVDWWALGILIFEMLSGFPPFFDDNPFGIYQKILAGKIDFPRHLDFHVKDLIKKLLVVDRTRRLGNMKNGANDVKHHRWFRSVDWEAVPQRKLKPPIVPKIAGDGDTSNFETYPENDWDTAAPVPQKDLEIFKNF

[9] = target: Rho-associated protein kinase 1 (Homo sapiens) (UniProt Q13464); assay: Inhibition of wild-type human partial length ROCK1 (M1 to R415 residues) expressed in mammalian expression system assessed as residual activity at 1 uM by Kinomescan method relative to control
Sequence of Rho-associated protein kinase 1 (Homo sapiens) (Q13464 2-1354 limits assumed): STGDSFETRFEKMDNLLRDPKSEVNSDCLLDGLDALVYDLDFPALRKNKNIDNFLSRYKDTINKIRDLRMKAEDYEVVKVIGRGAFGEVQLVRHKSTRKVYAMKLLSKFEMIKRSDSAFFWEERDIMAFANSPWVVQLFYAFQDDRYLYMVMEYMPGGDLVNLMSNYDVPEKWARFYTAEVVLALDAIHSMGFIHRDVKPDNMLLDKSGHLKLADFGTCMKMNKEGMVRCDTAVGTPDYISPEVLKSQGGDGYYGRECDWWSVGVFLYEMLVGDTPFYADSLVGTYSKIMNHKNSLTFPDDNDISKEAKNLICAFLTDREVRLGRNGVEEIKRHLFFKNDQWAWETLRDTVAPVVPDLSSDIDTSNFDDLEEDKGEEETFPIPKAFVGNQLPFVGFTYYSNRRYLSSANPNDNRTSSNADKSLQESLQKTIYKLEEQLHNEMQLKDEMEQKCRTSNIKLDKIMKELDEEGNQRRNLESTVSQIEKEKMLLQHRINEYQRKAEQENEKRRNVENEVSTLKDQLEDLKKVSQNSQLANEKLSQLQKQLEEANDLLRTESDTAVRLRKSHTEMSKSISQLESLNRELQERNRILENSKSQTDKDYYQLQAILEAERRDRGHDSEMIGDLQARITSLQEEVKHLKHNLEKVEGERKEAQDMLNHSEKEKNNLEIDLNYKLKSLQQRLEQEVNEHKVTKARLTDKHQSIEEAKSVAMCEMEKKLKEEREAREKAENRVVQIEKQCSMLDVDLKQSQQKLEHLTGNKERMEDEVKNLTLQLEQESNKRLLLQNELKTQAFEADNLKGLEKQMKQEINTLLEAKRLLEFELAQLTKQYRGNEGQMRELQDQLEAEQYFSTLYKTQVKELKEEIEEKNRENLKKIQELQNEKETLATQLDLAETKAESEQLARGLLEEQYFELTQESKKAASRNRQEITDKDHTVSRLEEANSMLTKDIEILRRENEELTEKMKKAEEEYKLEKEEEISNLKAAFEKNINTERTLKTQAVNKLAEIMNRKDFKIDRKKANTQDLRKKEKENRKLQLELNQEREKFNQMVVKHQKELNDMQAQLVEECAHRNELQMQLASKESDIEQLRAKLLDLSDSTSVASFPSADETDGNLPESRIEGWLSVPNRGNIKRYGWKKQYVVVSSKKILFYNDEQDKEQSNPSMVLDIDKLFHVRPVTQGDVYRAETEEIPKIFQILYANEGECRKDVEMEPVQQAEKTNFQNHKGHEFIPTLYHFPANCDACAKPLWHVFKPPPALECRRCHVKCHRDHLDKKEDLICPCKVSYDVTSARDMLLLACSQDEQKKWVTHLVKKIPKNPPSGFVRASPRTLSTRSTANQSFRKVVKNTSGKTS

[10] = target: Vascular endothelial growth factor receptor 3 (Homo sapiens) (UniProt P35916); assay: Inhibition of wild-type human partial length FLT4 (E821 to E1196 residues) expressed in bacterial expression system assessed as residual activity at 1 uM by Kinomescan method relative to control
[11] = target: Cyclin-dependent kinase 5/CDK5 activator 1 (Homo sapiens) (UniProt Q00535+Q15078); assay: Inhibition of wild-type human full length CDK5 (M1 to P292 residues)/p35 expressed in bacterial expression system assessed as residual activity at 1 uM by Kinomescan method relative to control
[12] = target: Myosin light chain kinase (Homo sapiens) (UniProt Q32MK0); assay: Inhibition of wild-type human partial length MLCK (D488 to K800 residues) expressed in bacterial expression system assessed as residual activity at 1 uM by Kinomescan method relative to control
Sequence of Myosin light chain kinase (Homo sapiens) (Q32MK0 whole entry, the tested form may be a part): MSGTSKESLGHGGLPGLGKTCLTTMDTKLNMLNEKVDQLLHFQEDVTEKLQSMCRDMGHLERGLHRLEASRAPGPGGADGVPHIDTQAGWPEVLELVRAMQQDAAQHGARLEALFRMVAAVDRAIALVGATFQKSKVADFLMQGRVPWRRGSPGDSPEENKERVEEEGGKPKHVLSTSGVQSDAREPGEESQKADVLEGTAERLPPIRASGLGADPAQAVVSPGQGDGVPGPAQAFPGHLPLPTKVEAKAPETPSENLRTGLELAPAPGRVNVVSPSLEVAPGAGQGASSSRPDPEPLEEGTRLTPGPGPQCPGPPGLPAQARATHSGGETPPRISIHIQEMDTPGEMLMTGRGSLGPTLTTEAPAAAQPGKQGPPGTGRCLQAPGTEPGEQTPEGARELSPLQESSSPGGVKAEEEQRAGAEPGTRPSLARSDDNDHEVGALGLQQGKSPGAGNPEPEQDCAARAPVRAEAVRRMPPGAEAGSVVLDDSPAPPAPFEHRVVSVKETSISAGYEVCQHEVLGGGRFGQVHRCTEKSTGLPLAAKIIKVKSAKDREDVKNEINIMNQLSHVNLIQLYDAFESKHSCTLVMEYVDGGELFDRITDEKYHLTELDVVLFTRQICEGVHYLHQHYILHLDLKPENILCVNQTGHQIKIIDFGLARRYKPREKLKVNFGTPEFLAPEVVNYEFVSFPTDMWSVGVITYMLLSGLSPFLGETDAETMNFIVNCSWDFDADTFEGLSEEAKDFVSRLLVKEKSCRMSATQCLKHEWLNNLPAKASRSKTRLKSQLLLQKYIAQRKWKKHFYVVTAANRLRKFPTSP

[13] = target: Tyrosine-protein kinase Fgr (Homo sapiens) (UniProt P09769); assay: Inhibition of wild-type human partial length FGR (L233 to T529 residues) expressed in bacterial expression system assessed as residual activity at 1 uM by Kinomescan method relative to control
[14] = target: Cytoplasmic tyrosine-protein kinase BMX (Homo sapiens) (UniProt P51813); assay: Inhibition of wild-type human full length BMX (M1 to H675 residues) expressed in bacterial expression system assessed as residual activity at 1 uM by Kinomescan method relative to control
[15] = target: Cyclin-Y/Cyclin-dependent kinase 16 (Homo sapiens) (UniProt Q00536+Q8ND76); assay: Inhibition of CDK16/Cyclin Y (unknown origin) assessed as residual activity at 1 uM by Kinomescan method relative to control; assay type: protein-complex assay
[16] = Solubility of the compound in FaSSIF measured after 4 hrs; assay type: physicochemical
[17] = target: Tyrosine-protein kinase receptor TYRO3 (Homo sapiens) (UniProt Q06418); assay: Inhibition of wild-type human partial length TYRO3 (S497 to T814 residues) expressed in bacterial expression system assessed as residual activity at 1 uM by Kinomescan method relative to control
[18] = target: Tyrosine-protein kinase HCK (Homo sapiens) (UniProt P08631); assay: Inhibition of wild-type human full length HCK (M22 to P526 residues) expressed in bacterial expression system assessed as residual activity at 1 uM by Kinomescan method relative to control
[19] = target: Rhodopsin kinase GRK1 (Homo sapiens) (UniProt Q15835); assay: Inhibition of wild-type human full length GRK1 (M1 to S563 residues) expressed in mammalian expression system assessed as residual activity at 1 uM by Kinomescan method relative to control
Sequence of Rhodopsin kinase GRK1 (Homo sapiens) (Q15835 whole entry, the tested form may be a part): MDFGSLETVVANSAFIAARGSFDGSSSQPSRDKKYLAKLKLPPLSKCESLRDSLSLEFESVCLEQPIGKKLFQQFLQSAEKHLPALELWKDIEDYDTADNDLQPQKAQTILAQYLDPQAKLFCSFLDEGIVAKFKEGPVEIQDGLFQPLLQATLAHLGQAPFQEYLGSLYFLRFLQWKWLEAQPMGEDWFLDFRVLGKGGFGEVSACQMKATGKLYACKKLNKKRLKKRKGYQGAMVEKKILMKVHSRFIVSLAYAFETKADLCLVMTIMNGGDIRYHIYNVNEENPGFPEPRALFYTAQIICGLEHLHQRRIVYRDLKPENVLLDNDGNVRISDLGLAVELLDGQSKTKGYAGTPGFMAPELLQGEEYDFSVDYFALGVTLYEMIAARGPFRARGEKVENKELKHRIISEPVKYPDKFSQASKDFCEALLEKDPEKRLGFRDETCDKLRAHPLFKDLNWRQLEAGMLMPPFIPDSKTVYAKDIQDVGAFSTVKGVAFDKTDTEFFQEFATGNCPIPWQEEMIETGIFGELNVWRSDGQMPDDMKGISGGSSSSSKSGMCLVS

[20] = target: Serine/threonine-protein kinase 33 (Homo sapiens) (UniProt Q9BYT3); assay: Inhibition of wild-type human full length STK33 (M1 to L514 residues) expressed in bacterial expression system assessed as residual activity at 1 uM by Kinomescan method relative to control
[21] = target: Serine/threonine-protein kinase Nek4 (Homo sapiens) (UniProt P51957); assay: Inhibition of wild-type human full length NEK4 (M1 to F841 residues) expressed in mammalian expression system assessed as residual activity at 1 uM by Kinomescan method relative to control
[22] = target: Tyrosine-protein kinase ABL1 (Homo sapiens) (UniProt P00519); assay: Inhibition of human ABL1 expressed in mammalian expression system assessed as residual activity at 1 uM by Kinomescan method relative to control
[23] = In vivo inhibition of LRRK2 in Han-Wistar rat assessed as reduction in Ser935 phosphorylation in brain at 30 mg/kg, po by Western blot analysis; assay type: functional; parameters: scale not given: the % may be the effect or the level left
[24] = target: Tau-tubulin kinase 2 (Homo sapiens) (UniProt Q6IQ55); assay: Inhibition of TTBK2 (unknown origin) assessed as residual activity at 1 uM by Kinomescan method relative to control
[25] = Ratio of total drug concentration in brain to blood in Han-Wistar rat at 10 mg/kg, po; assay type: ADME, organism-based
[26] = Unbound fraction in rat blood; assay type: ADME, tissue-based
[27] = target: Serine/threonine-protein kinase ULK3 (Homo sapiens) (UniProt Q6PHR2); assay: Inhibition of wild-type human partial length ULK3 (M1 to Q290 residues) expressed in mammalian expression system assessed as residual activity at 1 uM by Kinomescan method relative to control
Sequence of Serine/threonine-protein kinase ULK3 (Homo sapiens) (Q6PHR2 whole entry, the tested form may be a part): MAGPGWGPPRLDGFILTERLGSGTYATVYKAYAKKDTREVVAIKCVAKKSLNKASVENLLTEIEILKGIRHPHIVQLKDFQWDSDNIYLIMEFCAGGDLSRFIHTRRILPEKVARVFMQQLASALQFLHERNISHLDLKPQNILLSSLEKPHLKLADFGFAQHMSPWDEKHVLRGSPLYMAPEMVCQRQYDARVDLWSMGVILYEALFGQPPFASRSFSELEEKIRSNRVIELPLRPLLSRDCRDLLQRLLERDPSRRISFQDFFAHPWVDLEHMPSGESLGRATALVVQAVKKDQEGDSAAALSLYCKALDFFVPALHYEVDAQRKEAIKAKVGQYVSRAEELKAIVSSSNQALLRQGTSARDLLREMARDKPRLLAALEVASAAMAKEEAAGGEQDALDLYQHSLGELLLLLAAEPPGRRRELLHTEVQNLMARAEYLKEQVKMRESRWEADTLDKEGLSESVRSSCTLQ

[28] = target: Receptor-interacting serine/threonine-protein kinase 3 (Homo sapiens) (UniProt Q9Y572); assay: Inhibition of wild-type human partial length RIPK3 (M1 to Q307 residues) expressed in bacterial expression system assessed as residual activity at 1 uM by Kinomescan method relative to control
Sequence of Receptor-interacting serine/threonine-protein kinase 3 (Homo sapiens) (Q9Y572 whole entry, looked up, the tested form may be a part): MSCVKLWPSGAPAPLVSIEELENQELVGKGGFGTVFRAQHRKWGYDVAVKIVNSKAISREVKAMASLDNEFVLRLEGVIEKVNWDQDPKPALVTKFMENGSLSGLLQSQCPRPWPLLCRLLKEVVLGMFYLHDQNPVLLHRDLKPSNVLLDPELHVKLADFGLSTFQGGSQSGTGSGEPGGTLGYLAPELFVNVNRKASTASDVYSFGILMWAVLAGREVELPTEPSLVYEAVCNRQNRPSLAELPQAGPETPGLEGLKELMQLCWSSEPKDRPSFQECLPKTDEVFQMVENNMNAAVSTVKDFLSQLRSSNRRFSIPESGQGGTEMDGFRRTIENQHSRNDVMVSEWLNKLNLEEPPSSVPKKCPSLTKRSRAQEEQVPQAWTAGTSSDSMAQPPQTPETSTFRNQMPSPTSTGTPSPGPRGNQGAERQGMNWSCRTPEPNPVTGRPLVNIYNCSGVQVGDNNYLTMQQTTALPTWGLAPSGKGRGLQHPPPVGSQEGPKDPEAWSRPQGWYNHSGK

`CCOc1nc(Nc2ccc(C(=O)N3CCOCC3)cc2OC)nc2[nH]ccc12` gave an Activity [1] of 102%, an Activity [2] of 34.3% and an Activity [3] of 101%. The Activity [4] was 97.5%, the Activity [5] was 97.6% and the Activity [6] was 104%. It also gave an Activity [7] of 95.9%, an Activity [8] of 99.8% and an Activity [9] of 94.2%. The Activity [10] was 106%, the Activity [11] was 93.1% and the Activity [12] was 15.8%. The Activity [13] was 104%, the Activity [14] was 92.5% and the Activity [15] was 105%. For the same compound, the solubility at 4 h [16] was 127 µg/mL (≈ 320 µM), the Activity [17] was 109% and the Activity [18] was 87.2%. The Activity [19] was 95.2%, the Activity [20] was 49.5% and the Activity [21] was 95%. The Activity [22] was 105%, the Activity [23] was 50% and the Activity [24] was 104%. For the same compound, the Kp [25] was 0.24, the fraction unbound [26] was 0.032 and the Activity [27] was 82%. It also gave an Activity [28] of 108%.
